Where two headings read alike, the source gives them in different places.
How the values were obtained:
[1] = tested on: HT-1080-FAP tumor xenografts; test: Organ distribution ex vivo in HT-1080-FAP tumor bearing nude mice; set-up: species or system mouse; details: for Tumor uptake 1 h / Tumor uptake 4 h / Tumor uptake 24 h: HT-1080-FAP tumor bearing nude mice, mean ± SD, n = 3
Procedure: (§1) For in vivo experiments, 8 week old BALB/c nu/nu mice (Charles River) were subcutaneously inoculated into the right trunk with 5×10^6 with HT-1080-FAP, Capan-2 or SK-LMS-1 cells, respectively. When the size of the tumor reached approximately 1 cm^3, the radiolabeled compound was injected via the tail vein (˜10 MBq for small-animal PET imaging; ˜1 MBq for organ distribution). PET imaging was performed up to 140 min after intravenous injection of 1 MBq of Ga-68 labeled compound per mouse using the Inveon PET small-animal PET scanner (Siemens). Images were reconstructed iteratively using the 3D-OSEM+MAP method and were converted to standardized uptake value (SUV) images. Quantification was done using a ROI technique and expressed as SUV mean. For organ distribution of Lu-177 labeled compound (approx. […] per mouse), the animals (n=3 for each time point) were sacrificed after indicated time points (from 30 min to 24 h). The distributed radioactivity was measured in all dissected organs and in blood using a γ-counter (Cobra Autogamma, Packard). The values are expressed as percentage of injected dose per gram of tissue (% ID/g).

human FAP-α = human FAP-α (Homo sapiens (Human), UniProt Q12884); test: Competitive binding of radiolabeled compound to HT-1080-FAP cells against unlabeled compound; details: for IC50: read-out: IC50; for IC50-values: Cu-64 labeled
Procedure: Competition experiments were performed by simultaneous exposure to unlabeled (10^−5 M to 10^−9M) and radiolabeled compound for 60 min. […] For internalization experiments, surface bound activity was removed by incubating the cells with 1 M glycine-HCl buffer for 10 min. The radioactivity was measured using a γ-counter, normalized to 1 mio cells and calculated as percentage of applied dose (% ID).
The medium was replaced by 1 mL fresh medium without fetal calf serum. […] Competition experiments were performed by simultaneous exposure to unlabeled (10^−5 M to 10^−9 M) and radiolabeled compound for 60 min. […] In all experiments, the cells were washed with 1 mL phosphate-buffered saline pH 7.4 for 2 times and subsequently lysed with 1.4 ml lysis buffer (0.3 M NaOH, 0.2% SDS). Radioactivity was determined in a γ-counter (Cobra II, Packard), normalized to 1 mio cells and calculated as percentage of the applied dose (% ID). Each experiment was performed 3 times, and 3 repetitions per independent experiment were acquired.

[2] = Blood pool clearance from SUVmean of the heart; assay type: in vivo; details: for Plateau value (SUVmean): hypothetical plateau, two phase exponential decay of heart SUVmean; for Blood pool-clearence (T1/2 [min]): rate determining half-life, two phase exponential decay of heart SUVmean 0.375-60 min
Excerpt: The calculated plateau values, which were higher for Ga-68 labeled FAPI-13, -21, -36 and AlF-18 labeled FAPI-74 theoretically correspond to a higher fraction of compound which is not cleared due to unspecific binding or by remaining in circulating (Table 12).

[3] = tested on: HT-1080-FAP tumor xenografts; test: Small-animal imaging (PET, scintigraphy) in HT-1080-FAP tumor bearing mice; assay type: in vivo, mouse; details: for tumor uptake in vivo: Tc-99m labeled, scintigraphy
Procedure: as §1, with “PET imaging was performed up to 140 min after intravenous injection of 1 MBq of Ga-68 labeled compound per mouse using the Inveon PET small-animal PET scanner (Siemens).” left out

HT-1080-FAP cells = test: Efflux experiments in HT-1080-FAP cells; assay type: cell-based, human; details: Cu-64 labeled
Procedure: Radioligand binding studies were performed using HT-1080-FAP cells. The radiolabeled compound was added to the cell culture and incubated for different time intervals ranging from 10 min to 24 h. Competition experiments were performed by simultaneous exposure to unlabeled (10^−5 M to 10^−9M) and radiolabeled compound for 60 min. For efflux experiments, radioactive medium was removed after incubation for 60 min and replaced by non-radioactive medium for time intervals ranging from 1 to 24 h. For internalization experiments, surface bound activity was removed by incubating the cells with 1 M glycine-HCl buffer for 10 min. The radioactivity was measured using a γ-counter, normalized to 1 mio cells and calculated as percentage of applied dose (% ID).
For radioligand binding studies, cells were seeded in 6-well plates and cultivated for 48 h to a final confluence of approx. 80-90% (1.2-2 mio cells/well). The medium was replaced by 1 mL fresh medium without fetal calf serum. The radiolabeled compound was added to the cell culture and incubated for different time intervals ranging from 10 min to 24 h. Competition experiments were performed by simultaneous exposure to unlabeled (10^−5 M to 10^−9 M) and radiolabeled compound for 60 min. For efflux experiments, radioactive medium was removed after incubation for 60 min and replaced by non-radioactive medium for time intervals ranging from 1 to 24 h. In all experiments, the cells were washed with 1 mL phosphate-buffered saline pH 7.4 for 2 times and subsequently lysed with 1.4 ml lysis buffer (0.3 M NaOH, 0.2% SDS). Radioactivity was determined in a γ-counter (Cobra II, Packard), normalized to 1 mio cells and calculated as percentage of the applied dose (% ID). Each experiment was performed 3 times, and 3 repetitions per independent experiment were acquired.

[4] = Lu-177-labeled compound, unlabeled compound as competitor, HT-1080-FAP cells

human FAP-α, sequence (Q12884 whole entry): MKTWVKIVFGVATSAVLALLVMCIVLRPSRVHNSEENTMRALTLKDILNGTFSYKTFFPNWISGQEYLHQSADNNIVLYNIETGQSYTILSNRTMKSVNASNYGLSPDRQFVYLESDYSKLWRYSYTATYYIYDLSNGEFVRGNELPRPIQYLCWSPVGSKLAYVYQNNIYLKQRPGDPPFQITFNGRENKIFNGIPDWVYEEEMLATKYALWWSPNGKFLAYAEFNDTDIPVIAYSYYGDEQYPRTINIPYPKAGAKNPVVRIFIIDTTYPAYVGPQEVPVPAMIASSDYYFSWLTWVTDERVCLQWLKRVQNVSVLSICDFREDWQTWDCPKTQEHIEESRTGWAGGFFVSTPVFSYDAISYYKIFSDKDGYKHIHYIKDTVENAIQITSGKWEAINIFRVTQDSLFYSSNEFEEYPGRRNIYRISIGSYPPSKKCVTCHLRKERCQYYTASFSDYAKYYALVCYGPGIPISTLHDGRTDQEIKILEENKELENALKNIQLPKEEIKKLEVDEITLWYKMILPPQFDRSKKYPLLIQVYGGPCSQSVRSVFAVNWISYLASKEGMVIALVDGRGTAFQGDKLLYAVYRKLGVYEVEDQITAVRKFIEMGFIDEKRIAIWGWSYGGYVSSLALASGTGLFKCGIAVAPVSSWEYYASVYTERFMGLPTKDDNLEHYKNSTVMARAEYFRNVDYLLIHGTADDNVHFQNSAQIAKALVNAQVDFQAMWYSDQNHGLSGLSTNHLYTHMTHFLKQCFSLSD

In the case of N#C[C@@H]1CC(F)(F)CN1C(=O)CNC(=O)c1ccnc2ccc(OCCCCN3CCN(C(=O)CN4CCN(CC(=O)O)CCN(CC(=O)O)CCN(CC(=O)O)CC4)CC3)cc12 [FAPI-05], the “Tumor uptake 1 h” value [1] is reported as 6.0 ± 0.90 % ID/g, the “Tumor uptake 4 h” value [1] is reported as 5.8 ± 0.60 % ID/g and the “Tumor uptake 24 h” value [1] is reported as 2.8 ± 0.40 % ID/g. It also gave an IC50 (human FAP-α; [4]) of 17.2 nM.
With N#C[C@@H]1CC(F)(F)CN1C(=O)CNC(=O)c1ccnc2ccc(OCCCC3CCN(C(=O)CN4CCN(CC(=O)O)CCN(CC(=O)O)CCN(CC(=O)O)CC4)CC3)cc12 [FAPI-13] the “Tumor uptake 1 h” value [1] was 6.3 ± 0.57 % ID/g, the “Tumor uptake 4 h” value [1] was 8.7 ± 0.77 % ID/g and the “Tumor uptake 24 h” value [1] was 4.8 ± 1.71 % ID/g. The IC50 (human FAP-α; [4]) was 4.5 nM, the “Plateau value (SUVmean)” value [2] was 0.27 and the “Blood pool-clearence (T1/2 [min])” value [2] was 5.5 min.
With N#C[C@@H]1CC(F)(F)CN1C(=O)CNC(=O)c1ccnc2ccc(OCCOCCOCCN3CCN(C(=O)CN4CCN(CC(=O)O)CCN(CC(=O)O)CCN(CC(=O)O)CC4)CC3)cc12 [FAPI-15] the “Tumor uptake 1 h” value [1] was 3.4 ± 1.13 % ID/g, the “Tumor uptake 4 h” value [1] was 4.6 ± 0.32 % ID/g and the “Tumor uptake 24 h” value [1] was 1.1 ± 0.25 % ID/g. It also gave an IC50 (human FAP-α; [4]) of 9.1 nM.
With N#C[C@@H]1CC(F)(F)CN1C(=O)CNC(=O)c1ccnc2ccc(OCCCN3CCN(C(=O)CN(Cc4nccn4CC(=O)O)Cc4nccn4CC(=O)O)CC3)cc12 [FAPI-19] the IC50 (human FAP-α; Tc-99m labeled, HT-1080-FAP cells) was 6.4 nM and the “tumor uptake in vivo” value [3] was “insufficient tumor uptake”.
Compound N#C[C@@H]1CC(F)(F)CN1C(=O)CNC(=O)c1ccnc2ccc(OCCCN3C[C@@H]4C[C@H]3CN4C(=O)CN3CCN(CC(=O)O)CCN(CC(=O)O)CCN(CC(=O)O)CC3)cc12 [FAPI-20] has an IC50 (human FAP-α; [4]) of 7.2 nM.
In the case of N#C[C@@H]1CC(F)(F)CN1C(=O)CNC(=O)c1ccnc2ccc(OCCCN3CCN(C(=O)CN(Cc4nccn4CC(=O)N[C@@H](CC(C(=O)O)C(=O)O)C(=O)O)Cc4nccn4CC(=O)N[C@@H](CC(C(=O)O)C(=O)O)C(=O)O)CC3)cc12 [FAPI-34], the “tumor uptake in vivo” value [3] is reported as “continuously enriched within the tumor”.
N#C[C@@H]1CC(F)(F)CN1C(=O)CNC(=O)c1ccnc2ccc(CCCCN3CCN(C(=O)CN4CCN(CC(=O)O)CCN(CC(=O)O)CCN(CC(=O)O)CC4)CC3)cc12 [FAPI-39] showed an IC50 (human FAP-α; [4]) of 11.3 nM.
Work on N#C[C@@H]1CC(F)(F)CN1C(=O)CNC(=O)c1ccnc2ccc(SCCCN3CCN(C(=O)CN4CCN(CC(=O)O)CCN(CC(=O)O)CCN(CC(=O)O)CC4)CC3)cc12 [FAPI-40] yielded an IC50 (human FAP-α; [4]) of 12.7 nM.
With N#C[C@@H]1CC(F)(F)CN1C(=O)CNC(=O)c1ccnc2ccc(NCCCN3CCN(C(=O)CN4CCN(CC(=O)O)CCN(CC(=O)O)CCN(CC(=O)O)CC4)CC3)cc12 [FAPI-41] the IC50 (human FAP-α; [4]) was 8.3 nM.
For N#C[C@@H]1CC(F)(F)CN1C(=O)CNC(=O)c1ccnc2ccc(OCCCN3CCN(C(=O)CN4CCN(CC(=O)O)CCN(CC(=O)O)CC4)CC3)cc12 [FAPI-42], the IC50-values (human FAP-α; HT-1080-FAP cells) was “lower nanomolar range” and the “calculated in vitro-half-life (efflux)” value (HT-1080-FAP cells) was 720 min.
For CN(CCCN1CCN(C(=O)CN2CCN(CC(=O)O)CCN(CC(=O)O)CCN(CC(=O)O)CC2)CC1)c1ccc2nccc(C(=O)NCC(=O)N3CC(F)(F)C[C@H]3C#N)c2c1 [FAPI-46], the tumor-blood-ratios ([1]; Lu labeled, 1, 4 and 24 h, compared with FAPI-04) was “significantly higher ratios than FAPI-04”, the IC50 (human FAP-α; [4]) was 13.5 nM and the “Plateau value (SUVmean)” value [2] was 0.19. For the same compound, the “Blood pool-clearence (T1/2 [min])” value [2] was 5.3 min.
With N#C[C@@H]1CC(F)(F)CN1C(=O)CNC(=O)c1ccnc2ccc(OCCCN3CCN(CCN4CCN(CC(=O)O)CCN(CC(=O)O)CCN(CC(=O)O)CC4)CC3)cc12 [FAPI-47] the IC50 (human FAP-α; [4]) was 42 nM.
In the case of N#C[C@@H]1CC(F)(F)CN1C(=O)CNC(=O)c1ccnc2ccc(OCCCN3CCN(CCCN4CCN(CC(=O)O)CCN(CC(=O)O)CCN(CC(=O)O)CC4)CC3)cc12 [FAPI-48], the IC50 (human FAP-α; [4]) is reported as 26.3 nM.
In the case of CN(CCCN1CCN(C(=O)CN2CCN(CC(=O)O)CCN(CC(=O)O)CC2)CC1)c1ccc2nccc(C(=O)NCC(=O)N3CC(F)(F)C[C@H]3C#N)c2c1 [FAPI-52], the IC50-values (human FAP-α; HT-1080-FAP cells) is reported as “lower nanomolar range”.
For N#C[C@@H]1CCCN1C(=O)CNC(=O)c1ccnc2ccc(OCCCN3CCN(C(=O)CN4CCN(CC(=O)O)CCN(CC(=O)O)CC4)CC3)cc12 [FAPI-74], the IC50 (human FAP-α; F-18-FAPI derivatives, table title says EC50, head says IC50) was 9.2 nM, the “Plateau value (SUVmean)” value [2] was 0.32 and the “Blood pool-clearence (T1/2 [min])” value [2] was 2.4 min. The PET imaging findings ([3]; F-18 labeled (nicotinamide or AlF-18 NOTA), up to 140 min after i.v.) was “high target specificity and fast clearance”.

Source: patent publication US20250127937A1, “FAP INHIBITOR” (UNIVERSITÄT HEIDELBERG, priority 2018, published 2025)
